In patent US20240182867A1, “CHEMICAL REPROGRAMMING OF HUMAN SOMATIC CELLS INTO PLURIPOTENT CELLS” (Peking University, priority 2021, published 2024):

Experiments:
[1] = tested on: cellular retinoic acid binding protein (CRABP); conditions: cited from earlier work
[2] = tested on: DNA CpG methylation; assay: DNA methylation levels after withdrawing individual chemicals from stage II; type: cell-based, human
Description: (§1) In several experiments, to testing the reprogramming efficiency after regulate each small molecules, the indicated small molecules were removed from the cocktails. […]
To perform alignments of bisulfite-treated reads correctly, the Bismark Bisulfite Mapper pipeline was followed. […] Sequence reads were similarly transformed and mapped to prepared genomes using Bowtie2 with parameters set by Bismark. […] In this way, the number of reads were obtained that supported methylation and the number of reads covering every CpG site, non-CpG sites were not considered in later analysis.
To identify the sites showing evidence of methylation, binomial test was performed to each site on these counts to test whether the methylation counts are beyond bisulfite non-conversion events. […] Methylation level for each CpG site passed the test was defined as the fraction of reads supporting methylation out of reads that cover the site (mCpG/CpG). […] The mean CpG methylation level of each sample was calculated as the fraction of all reads supporting CpG methylation out of reads that cover CpG site (all mCpG / all CpG).

[3] = tested on: human somatic cells; assay: hCiPSC colonies at the end of reprogramming after withdrawing individual chemicals from stage I or II; type: cell-based; conditions: factor removed
Procedure: Cells were maintained at 37° C. with 21% 02 and 5% CO2. The induction medium was changed every 3-4 days. HEFs were seeded at a density of 1-1.5×10^4 cells per well of a 12-well plate in 15%. FBS-DMEM medium. Change the medium into stage I induction medium on the next day. For stage I induction, single layer epithelial-like cells would emerge at day 4-6 and approach 80%-100% confluence at day 8-12, then change the medium into stage II induction medium. For stage II induction, multi-layered colonies appeared after 8-12 days treatment and these cell colonies would continually grow larger. After totally 16-20 days' stage II treatment, change the medium into stage III condition. For stage III induction, 8-12 days treatment of stage III medium is required and then change the medium into stage IV condition. For stage IV induction, VPA (500 μM) was included in the first 4 days. Primary hCiPSC colonies would emerge after 6-8 days' treatment. At the end of stage IV, immunofluorescent staining of co-expression of OCT4 and NANOG was used to confirm the generation of primary hCiPSC colonies. Primary hCiPSC colony number was calculated as the number of the compact OCT4 positive colonies. Reprogramming efficiency was calculated as the number of primary hCiPSC colonies divided by the number of input HEFs.
In several experiments, to testing the reprogramming efficiency after removing each small molecules, the indicated small molecules were removed from the cocktails. The concentration of the small molecules used to regulate the same pathway or targets were indicated as follow: GSK3 inhibitors (CHIR99021: 3-15 μM; TD114-2: 0.5-2 μM; CHIR98014: 1-3 μM; GSK3βi XV: 0.05-0.2 μM); RA pathway agonists (TTNPB: 0.5-10 μM; Ch55: 1-5 μM; AM580: 0.1-1 μM); Rock inhibitors (TZV: 2-10 μM; Y27632: 2-15 μM; Fasudil: 2-10 μM; HA1100: 2-10 μM); TGFβ inhibitors (A8301: 0.1-5 μM; SB431542: 2-50 μM; LY364947: 0.5 μM; LY21: 0.5 μM; 616452: 10 μM).
In several experiments, to testing the reprogramming efficiency after regulate each small molecules, the indicated small molecules were removed from the cocktails. The concentration of the small molecules used to targeting the same pathway or targets were indicated as follow: GSK3 inhibitors (CHIR99021: 3-15 μM; TD114-2: 0.5-2 μM; CHIR98014: 1-3 μM; GSK3βi XV: 0.05-0.2 μM); TGFβ inhibitors (A8301: 0.2-5 μM; SB431542: 2-50 μM; 616452: 10 μM); RA pathway agonists (TTNPB: 0.2-10 μM; Ch55: 1-10 μM; AM580: 0.1-1 μM); Rock inhibitors (Y27632: 2-15 μM; Fasudil: 2-10 μM; HA1100: 2-10 μM; TZV: 2-10 μM); Smoothened agonists (SAG: 0.2-2 μM; Purmorphamine: 0.5-2 μM; Hg-Ag1.5: 0.5-1 μM; Human shh: 20-200 μM); histone demethylation inhibitors (Tranylcypromine: 2-50 μM; GSK2879: 0.02-2 μM; LSD-C76: 0.2-5 μM; S2101: 0.5-5 μM; LSD-2D: 0.2-5 μM; RN-1: 0.2-5 μM); DNMT inhibitors (5-azaC: 2-15 μM; Decitabine: 0.5-10 μM; RG108: 0.5-10 μM); JNK inhibitors (JNK-in-8: 0.2-2 μM; JNK-in-5: 0.5-1 μM; JNK-in-7: 0.2-2 μM; JNK-in-12: 0.2-0.5 μM); CBP/p300 bromodomain inhibitor (SGC-CBP30: 0.5-2 μM; I-CBP112: 0.5-5 μM; GNE272: 0.5-5μM; GNE409:0.5-5μM); Menin-MLL interaction inhibitor (VTP50469: 0.5-2μM; MI3454: 0.5-2μM; WDR5-IN-4: 0.5-2μM).

[4] = tested on: other human kinases; conditions: cited from earlier work
[5] = tested on: SALL4; assay: Withdrawing individual chemicals from stage II: SALL4 activation; type: cell-based, human
Procedure: as §1
Total RNA was isolated using Direct-zol RNA MiniPrep Kit (Zymo Research, R2053). cDNA was synthesized from 0.5-1 μg of total RNA using TransScript First-Strand cDNA Synthesis SuperMix (TransGen Biotech, AT311-03). qPCR was performed by using KAPA SYBR FAST qPCR Kit Master Mix (KAPA Biosystems, KM4101) on a CFX ConnectTM Real-Time System (Bio-Rad). The data were analyzed using the delta-delta Ct method. […]

[6] = tested on: genes that activated at stage II; assay: Withdrawing individual chemicals from stage II: plasticity signatures and chromatin accessibility; type: cell-based, human
Procedure: as §1
Approximately 5×10^4 cells of each sample were collected and washed once with cold PBS and re-suspended in 50 μL Lysis buffer (10 mM Tris-HCl PH7.4, 10 mM NaCl, 3 mM MgCl2, 0.5% NP-40). […] All ATAC libraries were sequenced on an Illumina Novaseq 6000 platform and 150 bp paired-end reads were generated. […]
Quality control was performed using FastQC to all samples. The raw ATAC-seq reads were trimmed using Trimmomatic with parameter ‘[…]:NexteraPE-PE.fa:2:30:7:1:true LEADING:3 TRAILING:3 SLIDINGWINDOW:4:15 MINLEN:36’ to remove detected adapters. Then the clean reads were mapped to human reference genome hg19 using Bowtie2 with parameter ‘—very-sensitive’. […] Duplicated reads were removed using MarkDuplicates function of Picard tools. Low quality mapped reads and reads mapped to mitochondrial were filtered using Samtools. […]
Overlapped peaks in different samples were merged and defined sample specific peak sets using R package ChIPpeakAnno. […] The ATAC signal strength around peak region or gene promoter region was quantified using Deeptools.

In the case of `CC(C)(C)c1cc(C(=O)/C=C/c2ccc(C(=O)O)cc2)cc(C(C)(C)C)c1` [Ch 55, 4-[(1E)-3-[3,5-bis(1,1-Dimethylethyl)phenyl]-3-oxo-1-propenyl]benzoic acid], the “affinity for CRABP” value [1] is given as “low affinity”.
With `Nc1ncn([C@@H]2O[C@H](CO)[C@@H](O)[C@H]2O)c(=O)n1` [5-Azacytidine] the “development of a hypo-methylated state” value [2] was “required” and the “generation of hCiPSCs” value [3] was “greatly impaired”.
For `CN(C)CCOc1ccc(-c2nc(-c3ccc4c(c3)CCC4=NO)c(-c3ccncc3)[nH]2)cc1` [SB590885, 5-[2-[4-[2-(Dimethylamino)ethoxy]phenyl]-5-(4-pyridinyl)-1H-imidazol-4-yl]-2,3-dihydro-1H-inden-1-one oxime], the “inhibition to other human kinases” value [4] is given as “no inhibition”.
For `Cc1cc(NC(=O)c2cccc(NC(=O)/C=C/CN(C)C)c2)ccc1Nc1nccc(-c2cccnc2)n1` [JNKIN8], the “activation of SALL4” value [5] was “required”, the “opened chromatin status of the genes activated at stage II” value ([6]; chromatin accessibility analysis) was “essential” and the “acquisition of plasticity signatures” value ([6]; stage II) was “required”. The “generation of hCiPSCs” value [3] was “greatly impaired”.
